Results published in patent US9856262B2, “Analogues of 4H-pyrazolo[1,5-a] benzimidazole compound as PARP inhibitors” (HUBEI BIO-PHARMACEUTICAL INDUSTRIAL TECHNOLOGICAL INSTITUTE …, priority 2014, dated 2018).
Read-outs that look alike come from different tables or passages of the source.

Legend:
PARP-1 = molecular target: T1, PARP-1 (Homo sapiens, UniProt P09874); experiment: PARP enzymatic assay (HT Universal Colorimetric PARP1 Assay Kit); assay type: biochemical; settings: read-out: PARP-1 enzymatic inhibition IC50
T1 construct: purchased
T1 sequence (P09874 whole entry): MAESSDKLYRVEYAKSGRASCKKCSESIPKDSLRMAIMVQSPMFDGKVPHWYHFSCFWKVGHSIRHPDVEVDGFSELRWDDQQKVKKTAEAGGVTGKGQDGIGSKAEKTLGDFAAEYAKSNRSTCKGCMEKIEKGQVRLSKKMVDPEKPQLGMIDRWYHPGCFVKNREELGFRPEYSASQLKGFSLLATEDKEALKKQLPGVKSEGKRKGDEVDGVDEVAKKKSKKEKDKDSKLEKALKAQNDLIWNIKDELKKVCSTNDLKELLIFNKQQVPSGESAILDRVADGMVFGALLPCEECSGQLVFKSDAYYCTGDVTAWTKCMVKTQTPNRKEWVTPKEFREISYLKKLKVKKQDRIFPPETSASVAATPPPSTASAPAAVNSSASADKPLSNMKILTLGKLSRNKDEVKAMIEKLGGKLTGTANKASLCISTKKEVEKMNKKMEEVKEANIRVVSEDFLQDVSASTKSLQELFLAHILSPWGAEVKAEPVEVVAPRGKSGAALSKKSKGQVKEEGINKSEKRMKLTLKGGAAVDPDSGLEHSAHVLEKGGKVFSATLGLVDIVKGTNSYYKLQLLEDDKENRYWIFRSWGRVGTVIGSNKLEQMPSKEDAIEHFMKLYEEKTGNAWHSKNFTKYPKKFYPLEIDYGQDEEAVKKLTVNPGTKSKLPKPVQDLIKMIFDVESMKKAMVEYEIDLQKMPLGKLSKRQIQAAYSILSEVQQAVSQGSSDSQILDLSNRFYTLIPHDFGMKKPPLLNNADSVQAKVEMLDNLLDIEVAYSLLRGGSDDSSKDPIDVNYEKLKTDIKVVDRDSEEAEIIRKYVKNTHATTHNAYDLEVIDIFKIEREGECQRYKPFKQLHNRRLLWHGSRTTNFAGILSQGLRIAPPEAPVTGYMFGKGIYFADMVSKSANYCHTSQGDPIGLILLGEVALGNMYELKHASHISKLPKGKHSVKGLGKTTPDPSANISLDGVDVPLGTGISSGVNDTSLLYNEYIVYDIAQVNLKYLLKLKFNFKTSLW
Protocol: PARP Enzymatic Assay (Following the Manual of HT Universal Colorimetric PARP1 Assay Kit).
Histone proteins were coated on a 96-well plate and incubated overnight at 4° C. After be washed 3 times with 200 ul PBST solution, the plate was blocked with a blocking solution and incubated for 30 min at room temperature, and then washed with PBST solution 3 times. A compound to be tested was treated and added to the plate. Thereafter, 20 μl of diluted PARP1 (1 nM) or 20 μl of PARP2 (3 nM) solution was added into the reaction system and incubated for 1 or 2 hours. 50 ul of streptavidin-HRP mixture (1:50) was added into the plate and incubated for 30 min at room temperature. The plate was then washed with three times with PBST buffer. 100 μl of (HRP) (Chemiluminescent substrate A and substrate B (1:1)) was added into the plate, and the plate was immediately read on a microplate reader (Envision, PerkinElmer).

HCC1937 cells = experiment: Cellular PARylation assay; assay type: cell-based
Protocol: Cellular PARylation Assay
HCC1937 cells were planted into 96 well plates at 4×10^4 cells/well and incubated at 37° C. in an incubator overnight. After being treated with a test compound for 30 min, cells were then treated with 1 mM H2O2 for 10 min. The cells were washed with 200 ul pre-chilled PBS twice and fixed with 100 ul pre-chilled methanol/acetone (7:3) on ice for 30 min. After being air-dried, the plates were blocked using PBS-Tween blocking solution (0.05%) with dissolved 5% nonfat dry milk for 30 min at room temperature. The cells were incubated with anti-PAR antibody 10H (1:100) at room temperature for 1 hour followed by washing with PBS-Tween20 for 3 times; and then added into a blocking solution including goat anti-mouse fluorescein isothiocyanate (FITC)-coupled secondary antibody and 1 μg/mL DAPI to incubate away from light at room temperature for 1 hour. After being washed with PBS-Tween20 for 3 times, the plate was analyzed with a fluorescence microplate counter (Flexstation III, Molecular Device).

[1] = Homo sapiens, HCC1937 cells, compound 30 min then 1 mM H2O2 10 min, read-out: cellular PARylation EC50

CC1(c2cnn3c2[nH]c2cc(F)cc(C(N)=O)c23)CCN(CC2CCOCC2)CC1 [Example 66, 6-fluoro-3-(4-methyl-1-((tetrahydro-2H-pyran-4-yl)methyl)piperidin-4-yl)-4H-benzo[4,5]imidazo[1,2-b]pyrazole-8-carboxamide]
IC50 (PARP-1): 1 to 100 nM | EC50 (HCC1937 cells; [1]): 1 to 100 nM

CCN1CCCC1c1cnn2c1[nH]c1cc(F)cc(C(N)=O)c12 (stereo not drawn) [Example 26, 3-(1-ethylpyrrolidin-2-yl)-6-fluoro-4H-benzo[4,5]imidazo[1,2-b]pyrazole-8-carboxamide]
IC50 (PARP-1): 1 to 100 nM | EC50 (HCC1937 cells; [1]): 101 to 1000 nM

CCCN1CCCC1c1cnn2c1[nH]c1cc(F)cc(C(N)=O)c12 (stereo not drawn) [Example 24, 6-fluoro-3-(1-propylpyrrolidin-2-yl)-4H-benzo[4,5]imidazo[1,2-b]pyrazole-8-carboxamide]
IC50 (PARP-1): 1 to 100 nM | EC50 (HCC1937 cells; [1]): 101 to 1000 nM

CCN1CCCC(c2cnn3c2[nH]c2cc(F)cc(C(N)=O)c23)C1 (stereo not drawn) [Example 17, 3-(1-ethylpiperidin-3-yl)-6-fluoro-4H-benzo[4,5]imidazo[1,2-b]pyrazole-8-carboxamide]
IC50 (PARP-1): 1 to 100 nM | EC50 (HCC1937 cells; [1]): 101 to 1000 nM

C[C@]1(c2nc3c(C(N)=O)cccc3[nH]2)CCCN1 [ABT-888, veliparib, reference compound]
EC50 (HCC1937 cells; HCC1937 cells, compound 30 min then 1 mM H2O2 10 min, read-out: cellular PARylation EC50): 1 to 100 nM

CNCc1ccc(-c2cnn3c2[nH]c2cc(F)cc(C(N)=O)c23)c(F)c1 [Example 42, 6-fluoro-3-(2-fluoro-4-((methylamino)methyl)phenyl)-4H-benzo[4,5]imidazo[1,2-b]pyrazole-8-carboxamide]
IC50 (PARP-1): 1 to 100 nM | EC50 (HCC1937 cells; [1]): 101 to 1000 nM

CC1(c2cnn3c2[nH]c2cc(F)cc(C(N)=O)c23)CCN(CC2(C#N)CC2)C1 (stereo not drawn) [Example 102, 3-(1-((1-cyanocyclopropyl)methyl)-3-methylpyrrolidin-3-yl)-6-fluoro-4H-benzo[4,5]imidazo[1,2-b]pyrazole-8-carboxamide]
IC50 (PARP-1): 1 to 100 nM | EC50 (HCC1937 cells; [1]): 101 to 1000 nM

CCN1CCC(CN2CCC(C)(c3cnn4c3[nH]c3cc(F)cc(C(N)=O)c34)CC2)CC1 [Example 78, 3-(1-((1-ethylpiperidin-4-yl)methyl)-4-methylpiperidin-4-yl)-6-fluoro-4H-benzo[4,5]imidazo[1,2-b]pyrazole-8-carboxamide]
IC50 (PARP-1): 1 to 100 nM | EC50 (HCC1937 cells; [1]): 1 to 100 nM

CC1(c2cnn3c2[nH]c2cc(F)cc(C(N)=O)c23)CCN(C2CC(F)C2)CC1 (stereo not drawn) [Example 76, 6-fluoro-3-(1-(3-fluorocyclobutyl)-4-methylpiperidin-4-yl)-4H-benzo[4,5]imidazo[1,2-b]pyrazole-8-carboxamide]
IC50 (PARP-1): 1 to 100 nM | EC50 (HCC1937 cells; [1]): 1 to 100 nM

NCCN1CCC(c2cnn3c2[nH]c2cc(F)cc(C(N)=O)c23)CC1 [Example 13, 3-(1-(2-aminoethyl)piperidin-4-yl)-6-fluoro-4H-benzo[4,5]imidazo[1,2-b]pyrazole-8-carboxamide]
IC50 (PARP-1): 1 to 100 nM | EC50 (HCC1937 cells; [1]): 101 to 1000 nM

NC(=O)c1cc(F)cc2[nH]c3c(-c4ccc(C5CCCNC5)cc4)cnn3c12 (stereo not drawn) [Example 46, 6-fluoro-3-(4-(piperidin-3-yl)phenyl)-4H-benzo[4,5]imidazo[1,2-b]pyrazole-8-carboxamide]
IC50 (PARP-1): 101 to 1000 nM | EC50 (HCC1937 cells; [1]): > 1000 nM

CC1(c2cnn3c2[nH]c2cc(F)cc(C(N)=O)c23)CCS(=O)(=O)CC1 [Example 106, 6-fluoro-3-(4-methyl-1,1-dioxidotetrahydro-2H-thiopyran-4-yl)-4H-benzo[4,5]imidazo[1,2-b]pyrazole-8-carboxamide]
IC50 (PARP-1): 1 to 100 nM | EC50 (HCC1937 cells; [1]): 101 to 1000 nM

NCc1cnn2c1[nH]c1cc(F)cc(C(N)=O)c12 [Example 39, 3-(aminomethyl)-6-fluoro-4H-benzo[4,5]imidazo[1,2-b]pyrazole-8-carboxamide]
IC50 (PARP-1): 1 to 100 nM | EC50 (HCC1937 cells; [1]): 101 to 1000 nM

CC1(c2cnn3c2[nH]c2cc(F)cc(C(N)=O)c23)CCN(CC2(O)CC2)CC1 [Example 70, 6-fluoro-3-(1-((1-hydroxycyclopropyl)methyl)-4-methylpiperidin-4-yl)-4H-benzo[4,5]imidazo[1,2-b]pyrazole-8-carboxamide]
IC50 (PARP-1): 1 to 100 nM | EC50 (HCC1937 cells; [1]): 1 to 100 nM

CC1(c2cnn3c2[nH]c2cc(F)cc(C(N)=O)c23)CCN(CC2(C#N)CCC2)C1 (stereo not drawn) [Example 101, 3-(1-((1-cyanocyclobutyl)methyl)-3-methylpyrrolidin-3-yl)-6-fluoro-4H-benzo[4,5]imidazo[1,2-b]pyrazole-8-carboxamide]
IC50 (PARP-1): 1 to 100 nM | EC50 (HCC1937 cells; [1]): 101 to 1000 nM

Cc1ncsc1CN1CCC(C)(c2cnn3c2[nH]c2cc(F)cc(C(N)=O)c23)CC1 [Example 83, 6-fluoro-3-(4-methyl-1-((4-methylthiazol-5-yl)methyl)piperidin-4-yl)-4H-benzo[4,5]imidazo[1,2-b]pyrazole-8-carboxamide]
IC50 (PARP-1): 1 to 100 nM | EC50 (HCC1937 cells; [1]): 1 to 100 nM

Cc1nn2c([nH]c3cc(F)cc(C(N)=O)c32)c1C1(C)CCN(C(C)C)CC1 [Example 114, 6-fluoro-3-(1-isopropyl-4-methylpiperidin-4-yl)-2-methyl-4H-benzo[4,5]imidazo[1,2-b]pyrazole-8-carboxamide]
IC50 (PARP-1): 1 to 100 nM | EC50 (HCC1937 cells; [1]): 1 to 100 nM

NC(=O)c1cc(F)cc2[nH]c3c(C4CCN(CCO)CC4)cnn3c12 [Example 16, 6-fluoro-3-(1-(2-hydroxyethyl)piperidin-4-yl)-4H-benzo[4,5]imidazo[1,2-b]pyrazole-8-carboxamide]
IC50 (PARP-1): 1 to 100 nM | EC50 (HCC1937 cells; [1]): 1 to 100 nM

CC1(c2cnn3c2[nH]c2cc(F)cc(C(N)=O)c23)CCN(C2COC2)C1 (stereo not drawn) [Example 94, 6-fluoro-3-(3-methyl-1-(oxetan-3-yl)pyrrolidin-3-yl)-4H-benzo[4,5]imidazo[1,2-b]pyrazole-8-carboxamide]
IC50 (PARP-1): 1 to 100 nM | EC50 (HCC1937 cells; [1]): 101 to 1000 nM

NC(=O)c1cc(F)cc2[nH]c3c(C4CCCN4)cnn3c12 (stereo not drawn) [Example 23, 6-fluoro-3-(pyrrolidin-2-yl)-4H-benzo[4,5]imidazo[1,2-b]pyrazole-8-carboxamide]
IC50 (PARP-1): 1 to 100 nM | EC50 (HCC1937 cells; [1]): 1 to 100 nM

CN1CC(CN2CCC(C)(c3cnn4c3[nH]c3cc(F)cc(C(N)=O)c34)CC2)C1 [Example 79, 6-fluoro-3-(4-methyl-1-((1-methylazetidin-3-yl)methyl)piperidin-4-yl)-4H-benzo[4,5]imidazo[1,2-b]pyrazole-8-carboxamide]
IC50 (PARP-1): 1 to 100 nM | EC50 (HCC1937 cells; [1]): 1 to 100 nM

NC(=O)c1cc(F)cc2[nH]c3c(C4CC(O)CN4)cnn3c12 (stereo not drawn) [Example 36, 6-fluoro-3-(4-hydroxypyrrolidin-2-yl)-4H-benzo[4,5]imidazo[1,2-b]pyrazole-8-carboxamide]
IC50 (PARP-1): 1 to 100 nM | EC50 (HCC1937 cells; [1]): 101 to 1000 nM

CC1(c2cnn3c2[nH]c2cc(F)cc(C(N)=O)c23)CCN(CCS(C)(=O)=O)CC1 [Example 65, 6-fluoro-3-(4-methyl-1-(2-(methylsulfonyl)ethyl)piperidin-4-yl)-4H-benzo[4,5]imidazo[1,2-b]pyrazole-8-carboxamide]
IC50 (PARP-1): 1 to 100 nM | EC50 (HCC1937 cells; [1]): 1 to 100 nM

CC1(c2cnn3c2[nH]c2cc(F)cc(C(N)=O)c23)CCN(CCS(C)(=O)=O)C1 (stereo not drawn) [Example 98, 6-fluoro-3-(3-methyl-1-(2-(methylsulfonyl)ethyl)pyrrolidin-3-yl)-4H-benzo[4,5]imidazo[1,2-b]pyrazole-8-carboxamide]
IC50 (PARP-1): 1 to 100 nM | EC50 (HCC1937 cells; [1]): 101 to 1000 nM

NC(=O)c1cc(F)cc2[nH]c3c(C4(CO)CCN(CC5CC5)CC4)cnn3c12 [Example 109, 3-(1-(cyclopropylmethyl)-4-(hydroxymethyl)piperidin-4-yl)-6-fluoro-4H-benzo[4,5]imidazo[1,2-b]pyrazole-8-carboxamide]
IC50 (PARP-1): 1 to 100 nM | EC50 (HCC1937 cells; [1]): 101 to 1000 nM

CC1(c2cnn3c2[nH]c2cc(F)cc(C(N)=O)c23)CCN(CCC(F)(F)F)C1 (stereo not drawn) [Example 99, 6-fluoro-3-(3-methyl-1-(3,3,3-trifluoropropyl)pyrrolidin-3-yl)-4H-benzo[4,5]imidazo[1,2-b]pyrazole-8-carboxamide]
IC50 (PARP-1): 1 to 100 nM | EC50 (HCC1937 cells; [1]): 1 to 100 nM

COCCCN1CCC(C)(c2cnn3c2[nH]c2cc(F)cc(C(N)=O)c23)CC1 [Example 72, 6-fluoro-3-(1-(3-methoxypropyl)-4-methylpiperidin-4-yl)-4H-benzo[4,5]imidazo[1,2-b]pyrazole-8-carboxamide]
IC50 (PARP-1): 1 to 100 nM | EC50 (HCC1937 cells; [1]): 1 to 100 nM

N#CC1(c2cnn3c2[nH]c2cc(F)cc(C(N)=O)c23)CCN(CC2CC2)CC1 [Example 108, 3-(4-cyano-1-(cyclopropylmethyl)piperidin-4-yl)-6-fluoro-4H-benzo[4,5]imidazo[1,2-b]pyrazole-8-carboxamide]
IC50 (PARP-1): 1 to 100 nM | EC50 (HCC1937 cells; [1]): 1 to 100 nM

NC(=O)c1cccc2cn(-c3ccc([C@@H]4CCCNC4)cc3)nc12 [MK-4827, niraparib, reference compound]
EC50 (HCC1937 cells; [1]): 1 to 100 nM

Cn1ncnc1[C@H]1c2n[nH]c(=O)c3cc(F)cc(c23)N[C@@H]1c1ccc(F)cc1 [BMN-673, reference compound]
EC50 (HCC1937 cells; Homo sapiens, HCC1937, read-out: cellular PARylation EC50): 1 to 100 nM
